Reference: patent US4017632A, “Phenoxyacetic acid derivatives” (Centre European de Recherches Pharmacologiques C.E.R.P.H.A., priority 1975, dated 1977)

Columns and labels:
[1] = test system: urinary excretion and clearance of uric acid; assay: Uricosuric activity in the phosphate-mannitol infused mongrel dog (renal clearance); type: in vivo
Method: The uricosuric activity of the compound of example 1 was further studied.
The uricosuric activity is determined by intravenous administration of a test compound to the phosphate-mannitol infused mongrel dog as a rapid injection at doses of 5 or 15 mg/kg. Renal clearance studies are compared against control experiments conducted in the same dogs. The urate clearance is calculated from the plasma and urinary concentrations. […] For example, compound of example 1 at a dose of 5 mg/kg i.v. increased urate excretion as a percentage of glomerular filtration rate from a value of 27% up to 40% and at a dose of 15 mg/kg i.v. increased it from 28% up to 74%.

[2] = test system: retention of phenol red in the circulation; assay: Uricosuric activity: retention of phenol red in the circulation of the rat; type: in vivo; details: 100 mg/kg per os; for % of retention (phenol red), 15 mn: 15 min after phenol red injection; for % of retention (phenol red), 30 mn: 30 min after phenol red injection; for % of retention (phenol red), 45 mn: 45 min after phenol red injection; for % of retention (phenol red), 60 mn: 60 min after phenol red injection
Method: This activity was determined by the ability of the compounds to cause retention of phenol red in the circulation of the rat, method described by
Scarborough h. c. and M. C. KINNEY G. R. --
The products were administered one hour before phenol red injection to batches of 5 rats of 250-280 g; anesthetized with ether, the animals received an I.V. injection of 1 cm3 of a 1% phenol red solution. Blood samplings were made 15, 30, 45 and 60 minutes after injection. The pink colour develop after addition to the plasma of an N/10 aqueous solution of sodium hydroxide.
For instance the compounds of examples 5 and 1, and benziodarone give the following results for a dosis of 100 mg/kg per os.

[3] = Acute toxicity per os in mice; details: mouse, in vivo, po; for LD50 at 48 h: male mice (Swiss C.D), per os, mortality after 48 hours, read-out: LD 50 per os
Method: The compounds were administered in the usual way to lots of 10 male mice (Swiss C.D) of average weight 20 g. Mortality was assessed after 48 hours for toxicity per os.

diuresis = assay: Diuretic activity in mice; type: in vivo
Method: The activity is determined on mice. The ratio R of the mean values of diuresis obtained for the treated animals to the mean values for control animals are determined.

Row | SMILES | urate excretion as a percentage of glomerular filtration rate ([1]; 5 mg/kg i.v., increased from a value of 27%) [%] | urate excretion as a percentage of glomerular filtration rate ([1]; 15 mg/kg i.v., increased from 28%) [%] | % of retention (phenol red), 15 mn [2] [%] | % of retention (phenol red), 30 mn [2] [%] | % of retention (phenol red), 45 mn [2] [%] | % of retention (phenol red), 60 mn [2] [%] | LD50 at 48 h [3] [mg/kg] | ratio R of mean diuresis of treated animals to control animals (diuresis; 100 mg/kg P.O.) | LD50 ([3]; P.O., ethacrynic acid, given in the diuretic activity section, read-out: DL 50 P.O.) [mg/kg] | ratio R of mean diuresis of treated animals to control animals (diuresis; 20 mg/kg P.O.)
1 | O=C(O)COc1ccc(C(O)c2cccs2)c(Cl)c1Cl (centres unmarked) [Example 1, 2,3-dichloro-4-(2-thienyl-hydroxy-methyl)-phenoxy-acetic acid] | 40 | 74 | 51 | 44 | 31 | 28 | 1000 | 1.6 |  | 
2 | O=C(O)COc1c(Br)cc(C(O)c2cccs2)cc1Br (centres unmarked) [Example 5, 2,6-dibromo-4-(2-thienyl-hydroxy-methyl)-phenoxy-acetic acid] |  |  | 68 | 123 | 105 | 58 | > 1000 |  |  | 
3 | CCc1oc2ccccc2c1C(=O)c1cc(I)c(O)c(I)c1 [benziodarone, reference compound] |  |  | 37 | 50 | 53 | 18 | 1400 |  |  | 
4 | C=C(CC)C(=O)c1ccc(OCC(=O)O)c(Cl)c1Cl [ethacrynic acid, reference compound] |  |  |  |  |  |  |  |  | 600 | 2.4
